Tested on: perceived sweet intensity (panelists)
Assay: Sensory time-intensity (TI) measurement of sweetness by a trained panel
Type: in vivo, human
Details: for AUC of time-intensity curve / lingering (intensity at 90 sec) / onset (time-point of first maximum intensity) / max. int. (maximum sweet intensity): lactisole alone, mean ± SEM; for AUC of time-intensity curve: 180 sec evaluation; for max. int. (maximum sweet intensity): unstructured scale 0-100
From the text: All panelists gave their written informed consent for participating in the panel and had to complete a sensory training. […] On a last training day, the evaluation on unstructured scales and the time-dependent evaluation on the computer were trained. All panelists reported to be in good general health condition, and not being under medication or pregnant. At least one hour before every training or tasting, panelists were instructed not to smoke and not to consume intense tasting food or beverage (e.g. coffee, chili, garlic, chewing gum) and to avoid in general strong hunger or fullness as well as strong odors or perfume on test days.
Every test solution was assessed randomly at two different test days with at least 8 panelists participating per replicate. The panelists were free to choose to participate at the different test days. A maximum of five test compounds were assessed in one session. All samples were coded with three-digit random code and presented to the panelists in randomized order. On each test day, panelists were presented five sweet solutions with 0, 25, 50, 100 and 200 g/L sucrose as a scale training for the ratings from “not at all” to “very intensive” sweetness. […] The three minutes of evaluation were chosen to capture as much of the lingering as possible without wearing out the panelists during the evaluation. A total of 350 measuring time points was recorded within the pre-set time frame, especially to see differences in the first seconds of evaluation, which are important for the onset. The panelists were asked to take the sample (20 mL) into their mouth, while starting the timer and simultaneously the evaluation of sweet intensity over the time, and to spit out the sample after ten seconds while continuing the evaluation of the sweetness intensity until the end of the three minutes.
For comparison of the time-dependent properties, the following descriptors were used: the maximum intensity at the first 30 sec of evaluation as “max. intensity”, the time-point of the first maximum intensity as “onset” in sec, […], and the area under the curve from the time-intensity plots as “AUC” as a marker for the overall intensity and duration.
All sensory experiments were conducted at the Christian Doppler Laboratory for Taste Research at the Institute for Physiological Chemistry, University of Vienna, Austria, at room temperature (21 – 23 °C). • Calcium mobilization assay
The statistical analysis and graphical representation were performed with GraphPad Prism 9.0 for sensory results and with SigmaPlot 14.0 for cell experiments. To evaluate the sensory dose–response effects of ascending sweetener concentration w/o lactisole, an asymmetrical five-parameter curve (Richard́s five-parameter dose–response curve) was fitted. The data are presented as means ± SEM from at least 16 single evaluations. Statistical significance between the different test compounds and concentration-dependent effects was assessed by two-way ANOVAs with Tukey post hoc test using Graph Pad Prism. The normal distribution of the data sets was checked by evaluation of the kurtosis (between −7 to + 7) and the skewness (between −3 to + 3). Equal variance was tested using Levenés test. In case the assumptions of a normal distribution and equal variance were not met, the non-parametric ANOVA on ranks (Kruskal-Wallis Test) with Dunn's post-hoc test without the calculation of interaction was applied. A Pearson product moment correlation was conducted to investigate relationships between sensory results and cell responses of the tested sweeteners.

SMILES: COc1ccc(OC(C)C(=O)O)cc1 (stereo not drawn) [lactisole, sodium 2-(4-methoxyphenoxy) propanoate]
- time after which a sweet perception (sweet aftertaste) was reported (lactisole 0.46 mM and 0.92 mM, sip-and-spit, spit out after ten seconds): around 30 sec
- AUC of time-intensity curve (0.46 mM): 4285 ± 926
- lingering (intensity at 90 sec) (0.46 mM): 16.96 ± 3.9
- onset (time-point of first maximum intensity) (0.46 mM): 106.0 ± 19.8 s
- max. int. (maximum sweet intensity) (0.46 mM): 23.3 ± 4.0
- AUC of time-intensity curve (0.92 mM): 5990 ± 1122
- lingering (intensity at 90 sec) (0.92 mM): 21.12 ± 3.8
- onset (time-point of first maximum intensity) (0.92 mM): 144.9 ± 21.9 s
- max. int. (maximum sweet intensity) (0.92 mM): 29.8 ± 4.2

Source: article PMC9532755, “Impact of lactisole on the time-intensity profile of selected sweeteners in dependence of the binding site” (Food Chemistry: X, 2022)
